Tests used:
[1] = tested on: α-enolase; experiment: Western blot of α-enolase protein expression after siRNA transfection; assay type: cell-based, human; conditions: for reduction of α-enolase expression: A549 cells; for decrease of levels of expression of α-enolase: MDA-MB-435 cells
Method: Western blot analysis utilizing anti-α-enolase antibodies was performed on MOLT4 cell extracts fractionated on SDS-PAGE (FIG. 3). Cells extract were prepared according to the protocol detailed in Example 1. […] Resolved proteins were electrophoretically transferred onto nitrocellulose membranes (Hybond, Amercham Pharmacia Biotech) for 1 hour. […] After blocking the membranes with 5% non-fat milk in 1×PBS overnight at 4° C., all antibody-binding reactions were performed in 5% non-fat milk in 1×PBS for 2 hours at room temperature for primary antibodies and for 1 hour for secondary antibodies coupled to HRP. The signal was detected by the Supersignal west Pico chemiluminescent substrate (Pierce, Rockford, Ill., USA). Two polyclonal antibodies against α-enolase were used: a goat antibody against human α-enolase (Santa Cruz Biotechology, Inc., Santa Cruz, Calif.); rabbit polyclonal antibody against human α-enolase (NNE) (MorphoSys AG, Munich, Del.). Membranes were subsequently blotted with anti-GAPDH (Novus Biologicals, Inc., Littleton, Colo.) or anti-prohibitin mouse monoclonal antibody (Lab Vision Corp., Fremont, Calif.) as controls for protein loading. To establish the importance of α-enolase to the expression of the drug-resistant phenotype in cell lines, α-enolase expression was silenced using RNAi. Briefly, the following siRNA duplexes targeting the human α-enolase mRNA were designed and purchased either from Ambion (Austin, Tex.) or Invitrogen (Carlsbad, Calif.). […] [NT] ID NO: 2) targeting the mRNA sequence corresponding to nucleotides […] from the start of the transcript (Ref Seq ID number: NM-001428). […] In another tube, […] of Oligofectamine reagent (Invitrogen, Carlsbad, Calif.) is mixed with […] of Opti-MEM. The two solutions are combined and mixed gently by inversion and incubated for 20 min. at RT. […] The next day the transfected cells were trypsinized and seeded in 6 or 96-well plates and further incubated for the indicated amount of time (assay dependent) before further analysis.

[2] = tested on: MCF-7/ADR xenografts; experiment: MCF-7/ADR xenografts in nude mice; assay type: in vivo; conditions: 3 μg daily for 16 days, with chemotherapeutic drugs
Method: In further studies, the efficacy of a α-enolase-targeted therapeutic in treating an MDR mammary adenocarcinoma cells (MCF/AR) is assessed. Briefly, male […] nude mice 5-7 weeks old, weighing 18 g-22 g are used for the MCF-7/ADR xenografts. Mice receive a subcutaneous (s.c.) injection of the cells using 5×10^5 cells/inoculation under the shoulder. When the s.c. tumor is approximately 5.5 mm in size, mice are randomized into treatment groups of 4 including controls and groups receiving taxol or doxorubicin, alone (4 mg/kg), intraperitoneally (i.p.) every 2 days, α-enolase siRNA alone (3 μg daily for 16 days), or both taxol and α-enolase siRNA (3 μg daily for 16 days for each treatment). […] The animal's weight is measured every 4 days. Tumor growth starting on the first day of treatment is measured and the volume of the xenograft is monitored every 4 days. The mice are anaesthetized and sacrificed when the mean tumor weight is over 1 g in the control group. Tumor tissue is excised from the mice and its weight is measured. […]
In further studies, the efficacy of a α-enolase-targeted therapeutic in treating an mammary adenocarcinoma cells (MCF-7) is assessed. […] The animal's weight is measured every 4 days. Tumor growth starting on the first day of treatment is measured and the volume of the xenograft is monitored every 4 days. […] Tumor tissue is excised from the mice and its weight is measured. […]

[3] = tested on: A549 cells; experiment: Transwell filter cell invasion assay, A549; assay type: cell-based, human
Method: Transwell filter chamber assays were performed using a Chemicon QCM 96-well invasion kit according to the manufacturer's instructions (Chemicon International, Inc., Temecula, Calif.). Eno-1 and control siRNA transfected cells were harvested 2 days post-transfection, resuspended in media without serum and seeded in 96-well Matrigel-coated transwell filter plates at 50,000 cells per well. Medium with 10% serum was used as a chemo-attractant in a feeder tray. The inserts were placed into the feeder tray, and the cells were subsequently incubated for 16 hours at 37° C. in an incubator containing a 5% CO2 atmosphere. Cells that invaded through the filter to the bottom tray were quantitated using the CyQUANT-GR dye according to the manufacturer's instructions (Molecular Probes, Eugene, Oreg.).
These assays test the ability of a cell to move across membranes, which is a hallmark of metastatic potential. To confirm the results shown in FIGS. 27A and 27B, the highly metastatic cell line MDA-MB-435 was transfected with a vector expressing the α-enolase siRNA and subjected to the transwell filter assay (FIGS. 28 and 29, respectively).

[4] = tested on: MDA-435 cells; experiment: cells; assay type: cell-based, human
Method: Similar tests utilizing α-enolase siRNA were performed on MDA-435 breast adenocarcinoma cells. Chemosensitivity to various drugs was determined for the MDA-435 cells as described above.

For “α-enolase siRNA: siRNA duplex targeting human α-enolase mRNA; sense 5′-GGCUGUUGAGCACAUCAAUtt-3′ (SEQ ID NO: 1), antisense SEQ ID NO: 2; Ambion (antisense AUUGAUGUGCUCAACAGCC; bought from Ambion, sense has tt overhang, further chemistry not given here)”, the “reduction of α-enolase expression” value ([1]; six days post-transfection) was 90%, the “reduction of α-enolase expression” value ([1]; three days post-transfection) was 77% and the “α-enolase expression” value ([1]; Detroit fibroblast cells, three days of treatment) was “significant down-regulation”. For the same substance, the “α-enolase level relative to control transfected cells” value ([1]; MDA-435 cells, 6 days post-transfection) was 14%, the “decrease of levels of expression of α-enolase” value ([1]; six days) was 92% and the “decrease of levels of expression of α-enolase” value ([1]; three days) was 67%. For the same substance, the “decrease of α-enolase protein expression” value ([1]; variety of cell lines) was 50-80%, the “total cell number in tumors vs control siRNA” value [2] was “lower” and the “tumor weight vs control siRNA” value [2] was “smaller tumors by weight”. For the same substance, the “invasion across membranes” value [3] was “reduced the invasion” and the “cell viability, of the control level” value [4] was “about 17%”.
